What all share (assay): growth of human tumour cells (NCI), 48 h
In assay [1] the test system is TK-10 renal.
In assay [2] the test system is SK-MEL-2 melanoma.
The subject of assay [3] is SK-MEL-28 melanoma.
Assay [4] relates to HT29 colon.
Assay [5] has as its system HCT-15 colon.
Assay [6] relates to MOLT-4 leukemia.
Assay [7] deals with HS 578T breast.
The test system of assay [8] is MDA-MB-231 breast.
For assay [9], the system named is HCC-2998 colon.
Assay [10] concerns OVCAR-4 ovarian.

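Assay format: 96-well plates, 48-hour exposure. At the GI50, growth is halved. TGI marks complete inhibition of growth.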

Turning to `Cc1ccc2ccccc2c1CSc1nc(N)nc2c1ncn2CC(C)C`, the TGI was over 100 µM in assay [1]; over 73.9 µM in assay [2]; over 100 µM in [3]; over 100 µM in assay [4]; over 100 µM in assay [5]; 29.7 µM in assay [6]. For the same molecule, the TGI in assay [7] is over 100 µM; in assay [8], over 100 µM; in assay [9], over 71.6 µM; in assay [10], over 100 µM.
For `C=C1C(=O)O[C@@H]2/C=C(/C)[C@@H](OC(C)=O)C[C@@H](O)/C(C)=C\[C@@H](OC(=O)[C@]3(C)O[C@@H]3C)[C@@H]12`, the TGI in [1] was 29.5 µM; in assay [2], 33.9 µM; in [3], 23.2 µM; in [4], 30.7 µM; in [5] it was 34.1 µM; in [6], 20.7 µM. Also, the TGI was over 100 µM in assay [7], 29.9 µM in assay [8], 34.5 µM in assay [9] and 45.8 µM in assay [10].
With `N#C/C(=C\c1ccc[nH]1)c1cc(-c2ccc(Cl)cc2)nn1-c1ccccc1`, the GI50 is 3.12 µM in assay [1]; 8.65 µM in assay [2]; 4.57 µM in assay [3]; 3.31 µM in [4]; 5.37 µM in [5]; 2.52 µM in assay [6]. The GI50 in assay [7] was 2.17 µM; in assay [8], 5.78 µM; in [9], 3.5 µM; in assay [10], 1.73 µM. For the same molecule, the TGI in assay [1] was 21.1 µM; in assay [2], 34.6 µM; in assay [3], 17.5 µM; in assay [4] it was 13 µM; in [5], 25.1 µM; in assay [6] it was 8.23 µM. The TGI was 14.1 µM in [7], 33 µM in assay [8], 12.4 µM in assay [9] and over 56.3 µM in [10].
On to `Cc1cc(N(CCC#N)S(=O)(=O)c2ccccc2)ccc1C=Nc1ccc(C(=O)O)cc1`, for which the TGI was 17.9 µM in assay [1]; 22.3 µM in [2]; 28.3 µM in assay [3]; 45.6 µM in assay [4]; 13.7 µM in assay [5]; 13.8 µM in assay [6]. Further, the TGI in assay [7] was over 100 µM; in assay [8], over 100 µM; in assay [9], 27.5 µM; in assay [10], 18.6 µM.
On to `CC1(C)OCC2OC(n3cnc4c(N)nc(Cl)nc43)C(OS(C)(=O)=O)C2O1` (stereo not given), for which the TGI in assay [1], in [2], in assay [3], in [4], in [5] and in assay [6] was over 100 µM each time. Besides, the TGI in assay [7], in [8], in assay [9] and in assay [10] was over 100 µM in each case.

The record behind these values is PubChem BioAssay (NCI).
